This is an account of results in PubChem BioAssay (NCI).

Among the test systems are T-47D breast; RXF 393 renal; BT-549 breast; A549 NSCLC; MCF7 breast; HCT-116 colon; SNB-75 CNS; COLO 205 colon; UO-31 renal; SN12C renal.
Common to all, as to experiment: NCI anticancer screen, dose series, 48 h

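Cultured in 96-well plates, cells were exposed to test compound for 48 hours across five concentrations. Abbreviation: GI50, concentration required for 50% inhibition of growth. TGI: total growth inhibition.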

Regarding `C[C@]12CC[C@@H]3c4cc(OC(F)F)c(OS(N)(=O)=O)cc4CC[C@H]3[C@@H]1CC[C@@H]2O`, the GI50 in the assay with T-47D breast is 0.445 µM; with RXF 393 renal it was 0.139 µM; with BT-549 breast, 0.901 µM; with A549 NSCLC it was 1.75 µM; with MCF7 breast it was 0.39 µM; in the assay on HCT-116 colon, 0.434 µM. Besides, the GI50 in the assay with SNB-75 CNS was 0.193 µM; in the assay with COLO 205 colon, 0.653 µM; in the assay with UO-31 renal, 0.769 µM; in the assay on SN12C renal, 0.608 µM. For the same molecule, the TGI is 43.2 µM in the assay on T-47D breast; 0.589 µM in the assay with RXF 393 renal; 16.9 µM in the assay with BT-549 breast; over 88.2 µM in the assay with A549 NSCLC; 20.8 µM in the assay with MCF7 breast; 15 µM in the assay on HCT-116 colon. Besides, the TGI in the assay on SNB-75 CNS was 0.665 µM; in the assay with COLO 205 colon it was 13.9 µM; with UO-31 renal it was 26.6 µM; in the assay with SN12C renal it was 19.1 µM.

`OCCNC1c2cc(Cl)ccc2-c2c(Cl)cc(Cl)cc21` (stereo not given): the TGI in the assay on T-47D breast is over 100 µM; in the assay on RXF 393 renal, over 100 µM; in the assay with BT-549 breast, over 100 µM; in the assay with A549 NSCLC, over 100 µM; with MCF7 breast it was 53.8 µM; in the assay with HCT-116 colon, over 100 µM. Moreover, the TGI was over 100 µM in the assay with SNB-75 CNS, over 100 µM in the assay on COLO 205 colon, over 100 µM with UO-31 renal and 86.3 µM with SN12C renal.

As for `CC1=C(CC(=O)c2cccc([N+](=O)[O-])c2)C(=O)c2ccccc2C1=O`, the GI50 with T-47D breast was 2.46 µM; in the assay with RXF 393 renal, 3.14 µM; in the assay on BT-549 breast, 13.2 µM; in the assay with A549 NSCLC it was 15.6 µM; in the assay on MCF7 breast, 1.41 µM; with HCT-116 colon it was 3.01 µM. Moreover, the GI50 with SNB-75 CNS was 2.22 µM; with COLO 205 colon it was 19.7 µM; in the assay on UO-31 renal, 10.7 µM; in the assay with SN12C renal, 2.61 µM. Further, the TGI in the assay on T-47D breast amounted to 8.47 µM; in the assay on RXF 393 renal, 16.6 µM; in the assay with BT-549 breast, 26.5 µM; with A549 NSCLC it was 36.2 µM; with MCF7 breast, 3.65 µM; in the assay on HCT-116 colon it was 10.6 µM. Moreover, the TGI came to 10.2 µM with SNB-75 CNS, 37.6 µM in the assay with COLO 205 colon, 28.8 µM in the assay on UO-31 renal and 8.39 µM with SN12C renal.

`CC(=O)NCc1cccc(C#Cc2cncnc2Nc2ccc(OCc3cccc(F)c3)c(Cl)c2)c1`: the GI50 is 9.68 µM with T-47D breast; 13 µM with RXF 393 renal; 13.5 µM with BT-549 breast; 6.47 µM in the assay on A549 NSCLC; 9.18 µM in the assay on MCF7 breast; 9.05 µM with HCT-116 colon. In addition, the GI50 in the assay on SNB-75 CNS is over 21 µM; in the assay with COLO 205 colon it was over 16.7 µM; in the assay on UO-31 renal it was 3.25 µM; with SN12C renal, 10.6 µM. Also, the TGI with T-47D breast, in the assay on RXF 393 renal, in the assay on BT-549 breast, with A549 NSCLC, with MCF7 breast and in the assay on HCT-116 colon was over 25 µM each time. For the same molecule, the TGI with SNB-75 CNS was over 25 µM; in the assay with COLO 205 colon, over 25 µM; in the assay on UO-31 renal it was over 21.1 µM; with SN12C renal, over 25 µM.

`N#CCCN1C/C(=C/c2ccc(Cl)cc2)C(=O)/C(=C/c2ccc(Cl)cc2)C1`: the GI50 was 3.12 µM in the assay on T-47D breast; 1.22 µM with RXF 393 renal; 1.24 µM in the assay with BT-549 breast; 1.89 µM in the assay on A549 NSCLC; 0.42 µM in the assay on MCF7 breast; 0.25 µM with HCT-116 colon. In addition, the GI50 is 2.19 µM with SNB-75 CNS, 1.25 µM with COLO 205 colon, 1.39 µM in the assay on UO-31 renal and 1.44 µM with SN12C renal. The TGI was 13.8 µM in the assay on T-47D breast; 2.61 µM with RXF 393 renal; 2.65 µM with BT-549 breast; 10.4 µM in the assay on A549 NSCLC; 2.81 µM in the assay on MCF7 breast; 0.59 µM in the assay with HCT-116 colon. The TGI in the assay with SNB-75 CNS came out at 6.8 µM; in the assay on COLO 205 colon, 2.64 µM; in the assay on UO-31 renal, 2.77 µM; in the assay on SN12C renal it was 3.39 µM.

In the case of `COc1cc2nc(-c3cc(F)ccc3O)nc(N[C@@H]3CNC[C@H]3C(C)(C)O)c2cc1OC`, the GI50 was 2.06 µM with T-47D breast; 1.27 µM with RXF 393 renal; 1.64 µM with BT-549 breast; 1.74 µM in the assay on A549 NSCLC; 1.51 µM in the assay with MCF7 breast; 1.35 µM in the assay with HCT-116 colon. The GI50 with SNB-75 CNS is 0.42 µM; with COLO 205 colon, 1.63 µM; in the assay with UO-31 renal, 1.56 µM; with SN12C renal it was 1.42 µM. The TGI in the assay on T-47D breast turned out to be 3.98 µM; with RXF 393 renal, 2.55 µM; in the assay with BT-549 breast, 3.09 µM; in the assay on A549 NSCLC, 3.51 µM; in the assay on MCF7 breast, 3.07 µM; in the assay with HCT-116 colon it was 2.75 µM. Further, the TGI with SNB-75 CNS came out at 2.71 µM; in the assay with COLO 205 colon, 3.16 µM; in the assay with UO-31 renal, 3.21 µM; in the assay with SN12C renal, 3.12 µM.

For `Cc1cc(N(CCCNc2ccnc3cc(Cl)ccc23)Cc2ccco2)nc(N2CCN(C)CC2)n1`, the GI50 with T-47D breast was 2.15 µM; in the assay with RXF 393 renal, 1.79 µM; with BT-549 breast it was 2.07 µM; in the assay with A549 NSCLC it was 4.34 µM; in the assay on MCF7 breast, 3.01 µM; with HCT-116 colon, 2.48 µM. For the same molecule, the GI50 with SNB-75 CNS was 1.29 µM; in the assay on COLO 205 colon, 1.89 µM; in the assay with UO-31 renal, 2.02 µM; in the assay on SN12C renal, 4.24 µM. The TGI was 5.68 µM in the assay with T-47D breast; 3.55 µM in the assay with RXF 393 renal; 6.05 µM with BT-549 breast; 15.4 µM in the assay on A549 NSCLC; 13.9 µM with MCF7 breast; 10.7 µM with HCT-116 colon. Moreover, the TGI stood at 5.56 µM in the assay with SNB-75 CNS, 3.94 µM in the assay on COLO 205 colon, 5.33 µM in the assay on UO-31 renal and 17 µM with SN12C renal.

With `c1ccc(CCc2cccnc2)nc1`, the TGI in the assay on T-47D breast, in the assay with RXF 393 renal, in the assay with BT-549 breast, in the assay on A549 NSCLC, in the assay with MCF7 breast and in the assay on HCT-116 colon was over 100 µM each time. Also, the TGI in the assay with SNB-75 CNS, in the assay on COLO 205 colon, with UO-31 renal and in the assay with SN12C renal was over 100 µM throughout.
